The source of these data is patent US10251931B2, “Cyclic peptides and methods using same” (priority 2014, dated 2019).

In one experiment the target is T1, HIV-1 gp120 (Human immunodeficiency virus type 1 group M subtype B, UniProt P35961).
T1 construct: Expression and Purification of Wild-Type gp120YU-2; made in house; host or cells: HEK 293F
Type of experiment: binding. The protocol:
SPR competition binding assays were used to assess the structural elements required for cyclic hexapeptide binding to gp120. […] In an attempt to restore the lost contact, the length of the two linkers was changed (Linker 1 and Linker 2 in FIG. 12).
SPR experiments were performed on a Biacore 3000 optical biosensor (GE Healthcare). All experiments were carried out at 25° C. using standard PBS buffer pH=7.4 with 0.005% surfactant Tween. A CM5 sensor chip was derivatized by standard 1-ethyl-3-(3-dimethylaminopropyl) carbodiimide (EDC)/N-hydroxysuccinimide (NHS) chemistry, and coupling was done through ligand amine groups. Antibody 2B6R (α-human IL5R) was immobilized for negative control surfaces. For competition experiments, soluble four domain CD4 and 17b antibody were immobilized on the surface through standard EDC/NHS chemistry. For kinetic analyses, typically 2000-3000 RUs of protein reagents were immobilized on SPR chips, and analytes were passed over the surface at 50-100 μL/min. Surface regeneration was achieved by a 5 μL injection of 10 mM HCl solution at 100 μL/min. […] Regeneration of the surface was achieved by a single 10 second pulse of 1.3 M NaCl/35 mM NaOH and single 5-second pulse of 10 mM glycine, pH 1.5, for sCD4 and mAb 17b, respectively. All analyses were performed in triplicate.
The inhibition curve was converted into a calibration curve by the use of a fitting function. The fitting was done using the 4-parameter Equation (1) from BIAevaluation software,
The cyclic peptides of the invention were tested against HIV-1 gp120 by SPR competition assays as described elsewhere herein. A mixture of the cyclic peptide/gp120 solutions was passed over SPR chip immobilized with CD4 and 17b separately. The competition assay evaluated the ability of each peptide to inhibit the binding between gp120 and both soluble CD4 and 17b antibody, a surrogate for co-receptor.

A further experiment deals with HIV-1 Bal.01 pseudovirus. As to the kind of experiment: Inhibition of HIV-1 infection against Bal.01 (HOS.T4.R5 cells, luciferase). Type of experiment: cell-based.
A further experiment concerns HIV-1 JR-FL pseudovirus. Put plainly: Inhibition of HIV-1 infection against JR-FL (HOS.T4.R5 cells, luciferase). Type of experiment: cell-based.

“Also recorded” adds a separate entry of the source. Where two headings read alike, the source gives them in different places. Starred links: 1 amine or outer side, 2 acyl side, 3 side chain; linkers in the order of their positions; H or OH if unused. Positions of bridges follow the written chain, without caps; N, C: chain ends. Non-standard residues stand in square brackets, D forms with d. Residues, ends and D or L forms follow the SMILES beside them. ξ: configuration not given here. Pro(cis-4-Trz(4-CH2CH2Ph)) = O=C(O)[C@@H]1C[C@H](n2cc(CCc3ccccc3)nn2)CN1; X4 = O=C([C@@H]1C[C@H](n2cc(C3C4CC5CC(C4)CC3C5)nn2)CN1[*:1])[*:2]; Ile(3ξ) = CCC(C)[C@H](N)C(=O)O; Orn = NCCC[C@H](N)C(=O)O; Dab = NCC[C@H](N)C(=O)O; ξD = NC(CC(=O)O)C(=O)O

On to `CCC(C)[C@@H]1NC(=O)[C@H](CC(N)=O)NC(=O)[C@@H](N)CC(=O)NCCCC[C@@H](C(N)=O)NC(=O)[C@H](Cc2c[nH]c3ccccc23)NC(=O)[C@@H]2C[C@H](n3cc(C4C5CC6CC(C5)CC4C6)nn3)CN2C1=O` (stereo partly drawn) [AAR029F, (3S,6S,14S,17S,20S,24S,25aS)-3-((1H-indol-3-yl)methyl)-24-(4-((1R,3S,5S,7S)-adamantan-2-yl)-1H-1,2,3-triazol-1-yl)-14-amino-17-(2-amino-2-oxoethyl)-20-(sec-butyl)-1,4,12,15,18,21-hexaoxotetracosahydro-1H-pyrrolo[2,1-f][1,4,7,10,13,18]hexaazacyclotricosine-6-carboxamide] (H-DN[Ile(3ξ)][X4]WK-NH2; lactam 1-6), for which the “Dual receptor site (CD4 and 17b) inhibition of gp120, in words” value on HIV-1 gp120 (SPR competition) is listed as “dual inhibitors”.
Take “(3S,6S,14S,17S,20S,24S,25aS)-3-((1H-indol-3-yl)methyl)-14-amino-17-(2-amino-2-oxoethyl)-20-butyl-24-(4-ferrocenyl-1H-1,2,3-triazol-1-yl)-1,4,12,15,18,21-hexaoxotetracosahydro-1H-pyrrolo[2,1-f][1,4,7,10,13,18]hexaazacyclotricosine-6-carboxamide [AAR036]”: the “Dual receptor site (CD4 and 17b) inhibition of gp120, in words” value on HIV-1 gp120 (SPR competition) is “dual inhibitors”.
Still for that read-out and setting: the same measure for `CC[C@H](C)[C@@H]1NC(=O)[C@H](CC(N)=O)NC(=O)[C@H](CC(N)=O)NC(=O)[C@@H](N)CCC(=O)NCCCC[C@@H](C(N)=O)NC(=O)[C@H](Cc2c[nH]c3ccccc23)NC(=O)[C@@H]2C[C@H](n3cc(CCc4ccccc4)nn3)CN2C1=O` [AAR026, 2,2′-((3S,6S,15S,18S,21S,24S,28S,29aS)-3-((1H-indol-3-yl)methyl)-15-amino-24-((S)-sec-butyl)-6-carbamoyl-1,4,12,16,19,22,25-heptaoxo-28-(4-phenethyl-1H-1,2,3-triazol-1-yl)octacosahydro-1H-pyrrolo[2,1-f][1,4,7,10,13,16,22]heptaazacycloheptacosine-18,21-diyl)diacetamide] (H-ENNI[Pro(cis-4-Trz(4-CH2CH2Ph))]WK-NH2; lactam 1-7): “retained the dual receptor site inhibitory signature of linear PTs; also recorded: dual inhibitors”.
For the compound “(3S,6S,14S,17S,20S,24S,25aS)-3-((1H-indol-3-yl)methyl)-14-amino-17-(2-amino-2-oxoethyl)-20-cyclohexyl-24-(4-ferrocenyl-1H-1,2,3-triazol-1-yl)-1,4,12,15,18,21-hexaoxotetracosahydro-1H-pyrrolo[2,1-f][1,4,7,10,13,18]hexaazacyclotricosine-6-carboxamide [AAR029b-Chg]”, in the experiment on HIV-1 Bal.01 pseudovirus, the “Infection inhibition against Bal.01, in words” value is recorded as “inhibiting activity”.
For the compound “(3S,6S,14S,17S,20S,24S,25aS)-3-((1H-indol-3-yl)methyl)-14-amino-17-(2-amino-2-oxoethyl)-20-cyclopropyl-24-(4-ferrocenyl-1H-1,2,3-triazol-1-yl)-1,4,12,15,18,21-hexaoxotetracosahydro-1H-pyrrolo[2,1-f][1,4,7,10,13,18]hexaazacyclotricosine-6-carboxamide [AAR042]”, the “Dual receptor site (CD4 and 17b) inhibition of gp120, in words” value at HIV-1 gp120 (SPR competition) was “dual inhibitors”.
As to `CC[C@H](C)[C@@H]1NC(=O)[C@H](CC(N)=O)NC(=O)[C@@H](N)CC(=O)NCCC[C@@H](C(N)=O)NC(=O)[C@H](Cc2c[nH]c3ccccc23)NC(=O)[C@@H]2C[C@H](n3cc(CCc4ccccc4)nn3)CN2C1=O` [AAR031, (3S,6S,13S,16S,19S,23S,24aS)-3-((1H-indol-3-yl)methyl)-13-amino-16-(2-amino-2-oxoethyl)-19-((S)-sec-butyl)-1,4,11,14,17,20-hexaoxo-23-(4-phenethyl-1H-1,2,3-triazol-1-yl)tetracosahydropyrrolo[2,1-f][1,4,7,10,13,18]hexaazacyclodocosine-6-carboxamide] (H-DNI[Pro(cis-4-Trz(4-CH2CH2Ph))]W[Orn]-NH2; lactam 1-6), on HIV-1 gp120 (SPR competition), the “Dual receptor site (CD4 and 17b) inhibition of gp120, in words” value is “dual inhibitors”; the “IC50 value in words” value is given as “micro molar”.
Take “(3S,6S,14S,17S,20S,24S,25aS)-14-amino-17-(2-amino-2-oxoethyl)-3-(benzo[b]thiophen-3-ylmethyl)-20-(sec-butyl)-24-(4ferocenyl-1H-1,2,3-triazol-1-yl)-1,4,12,15,18,21-hexaoxotetracosahydro-1H-pyrrolo[2,1-f][1,4,7,10,13,18]hexaazacyclotricosine-6-carboxamide [AAR029E]”: at HIV-1 gp120, the “Dual receptor site (CD4 and 17b) inhibition of gp120, in words” value was “dual inhibitors”. In addition, the “Infection inhibition against Bal.01, in words” value in the experiment on HIV-1 Bal.01 pseudovirus is “inhibiting activity”.
With `CC[C@H](C)[C@@H]1NC(=O)[C@H](CC(N)=O)NC(=O)[C@@H](N)CCC(=O)NCC[C@@H](C(N)=O)NC(=O)[C@H](Cc2c[nH]c3ccccc23)NC(=O)[C@@H]2C[C@H](n3cc(CCc4ccccc4)nn3)CN2C1=O` [AAR030, (3S,6S,13S,16S,19S,23S,24aS)-3-((1H-indol-3-yl)methyl)-13-amino-16-(2-amino-2-oxoethyl)-19-((S)-sec-butyl)-1,4,10,14,17,20-hexaoxo-23-(4-phenethyl-1H-1,2,3-triazol-1-yl)tetracosahydropyrrolo[1,2-g][1,4,7,10,13,17]hexaazacyclodocosine-6-carboxamide] (H-ENI[Pro(cis-4-Trz(4-CH2CH2Ph))]W[Dab]-NH2; lactam 1-6), the “Dual receptor site (CD4 and 17b) inhibition of gp120, in words” value at HIV-1 gp120 (SPR competition) is “inactive”.
Turning to “(3S,6S,15S,18S,21S,25S,26aS)-3-((1H-indol-3-yl)methyl)-18-(2-amino-2-oxoethyl)-15-((2S,3S)-2-amino-3-methylpentanamido)-21-((S)-sec-butyl)-25-(4-ferrocenyl-1H-1,2,3-triazol-1-yl)-1,4,12,16,19,22-hexaoxohexacosahydropyrrolo[2,1-f][1,4,7,10,13,19]hexaazacyclotetracosine-6-carboxamide [AAR024b]”, the “Dual receptor site (CD4 and 17b) inhibition of gp120, in words” value on HIV-1 gp120 (SPR competition) was “enhanced dual receptor site antagonizing activities; also recorded: dual inhibitors”. Besides, the “Infection inhibition against Bal.01, in words” value in the experiment on HIV-1 Bal.01 pseudovirus is “inhibiting activity”. Also, the “Infection inhibition against JR-FL, in words” value in the experiment on HIV-1 JR-FL pseudovirus is given as “inhibiting activity”.
As for `CC[C@H](C)[C@@H]1NC(=O)[C@H](CC(N)=O)NC(=O)C(N)CC(=O)NCC[C@@H](C(N)=O)NC(=O)[C@H](Cc2c[nH]c3ccccc23)NC(=O)[C@@H]2C[C@H](n3cc(CCc4ccccc4)nn3)CN2C1=O` (stereo partly drawn) [AAR032, (3S,6S,15S,18S,22S,23aS)-3-((1H-indol-3-yl)methyl)-12-amino-15-(2-amino-2-oxoethyl)-18-((S)-sec-butyl)-1,4,10,13,16,19-hexaoxo-22-(4-phenethyl-1H-1,2,3-triazol-1-yl)docosahydro-1H-pyrrolo[1,2-g][1,4,7,10,13,17]hexaazacyclohenicosine-6-carboxamide] (H-[ξD]NI[Pro(cis-4-Trz(4-CH2CH2Ph))]W[Dab]-NH2; lactam 1-6), the “Dual receptor site (CD4 and 17b) inhibition of gp120, in words” value on HIV-1 gp120 (SPR competition) was “dual inhibitors”. Also, the “fold improvement vs AAR031” value at HIV-1 gp120 (two-carbon Linker 1 (Dab)) is recorded as approximately 10 fold.
Take “(3S,6S,12S,15S,19S,20aS)-3-((1H-indol-3-yl)methyl)-12-amino-15-((S)-sec-butyl)-19-(4-ferrocenyl-1H-1,2,3-triazol-1-yl)-1,4,10,13,16-pentaoxoicosahydropyrrolo [1,2-d][1,4,7,10,14]pentaazacyclooctadecine-6-carboxamide [AAR040]”: the “Dual receptor site (CD4 and 17b) inhibition of gp120, in words” value at HIV-1 gp120 (SPR competition) is reported as “dual inhibitors”.
